Experimental data taken from patent US20090197819A1, “Compositions for improving and repairing skin” (priority 2007, published 2009).

What was measured:
[1] = test system: Fibroblast cell cultures; assay: Recovery of ATP in cultured fibroblasts after hypoxic stress; assay type: cell-based; conditions: fibroblasts at about 80% confluence, six hours hypoxic atmosphere, fresh medium, inspected at 12, 24 and 48 hours; first experiment
Experimental: Based on this information, Applicants believe that the same effect might be shown in cell culture with skin cells. The first skin cell be tested in vitro was the fibroblast, the culture of which is well known. The Coriell Institute for medical research publishes a web site with detailed instructions, the teachings of which are incorporated by reference. (Http:/locus.umdnj.edu/cer/faq/fibro.html.) Fibroblast cell cultures were tested to determine an optimal level of ribose as compared to glucose control.
To determine a protective effect of ribose, test and control plates were grown to about 80% confluence and subjected to a simulated environmental stress, six hours under an hypoxic atmosphere. Following exposure, the medium was aspirated off the culture and fresh medium applied. Cultures were inspected at 12, 24 and 48 hours to determine recovery of ATP to pre-hypoxia levels.

[2] = test system: skin; assay: Preliminary application of ribose to skin without penetrant; assay type: in vivo; conditions: topical, no penetrant
Text: The skin is a barrier. Preliminary effects to determine the effect on improving skin by the application of ribose were unsuccessful, leading the Applicants to the realization that ribose may not have penetrated to the basal cells and dermis. To get penetration it is advantageous to provide a penetrant to increase the concentration of active ingredient at the dermis and epidermis. A preferred penetrant is ethanol, which will be incorporated into the composition at a concentration of 0.1 to 15%, most preferably 10% weight to volume. The active ingredient may be at a concentration of from 0.5 to 10%, preferably 1%, weight to volume.

[3] = test system: lymphocytes; conditions: previously shown by Applicants; cited from earlier work
[4] = test system: skeletal muscle; conditions: oral administration; cited from earlier work

Compound: O=C[C@H](O)[C@H](O)[C@H](O)CO [D-ribose]
- recovery of ATP to pre-hypoxia levels (of base ATP levels) [1]: 19%
- effect on improving skin by the application of ribose [2]: unsuccessful
- growth of lymphocytes in cell culture [3]: stimulates the growth
- ATP levels in skeletal muscle [4]: raises ATP levels
